Assay results as given in the NIST ThermoML archive (doi:10.1016/j.fluid.2009.06.002).

Details: Liquid; for mass density / viscosity: 298.15 K; for mass density: 101.33 kPa; for vapor or sublimation pressure: Twin ebulliometer

COC(=O)OC [dimethyl carbonate]
Details | mass density [kg/m3] | vapor or sublimation pressure [kPa] | viscosity [mPa·s]
– | 1063.4 | – | 0.578
310 K | – | 12.17 | –
313.86 K | – | 14.7 | –
317.71 K | – | 17.65 | –
321.57 K | – | 21.05 | –
325.43 K | – | 24.96 | –
329.29 K | – | 29.43 | –
333.14 K | – | 34.51 | –
337 K | – | 40.26 | –
340.86 K | – | 46.73 | –
344.71 K | – | 53.99 | –
348.57 K | – | 62.11 | –
352.43 K | – | 71.13 | –
356.29 K | – | 81.14 | –
360.14 K | – | 92.2 | –
364 K | – | 104.4 | –

C1C[C@@H]2[C@H]3CC[C@H](C3)[C@@H]2C1 [exo-tetrahydrodicyclopentadiene]
Details | mass density [kg/m3] | vapor or sublimation pressure [kPa] | viscosity [mPa·s]
– | 931.4 | – | 2.739
393 K | – | 14.8 | –
397.64 K | – | 17.5 | –
402.29 K | – | 20.7 | –
406.93 K | – | 24.2 | –
411.57 K | – | 28.2 | –
416.21 K | – | 32.7 | –
420.86 K | – | 37.8 | –
425.5 K | – | 43.3 | –
430.14 K | – | 49.5 | –
434.79 K | – | 56.3 | –
439.43 K | – | 63.8 | –
444.07 K | – | 72 | –
448.71 K | – | 80.9 | –
453.36 K | – | 90.6 | –
458 K | – | 101.1 | –
